Assay results taken from patent US20250145665A1, “MACROCYCLIC PEPTIDES USEFUL AS MODULATORS OF TNF ALPHA” (Bristol-Myers Squibb Company, priority 2023, published 2025).
Starred links: 1 amine or outer side, 2 acyl side, 3 side chain; linkers in the order of their positions; H or OH if unused. Positions of bridges follow the written chain, without caps; N, C: chain ends. Non-standard residues stand in square brackets, D forms with d. Residues, ends and D or L forms follow the SMILES beside them. *: point of attachment. Bip(4'-NHCO-C6H4-4-CH2COOH) = N[C@@H](Cc1ccc(-c2ccc(NC(=O)c3ccc(CC(=O)O)cc3)cc2)cc1)C(=O)O; Bip(4'-(3-HOOC-benzamido)) = N[C@@H](Cc1ccc(-c2ccc(NC(=O)c3cccc(C(=O)O)c3)cc2)cc1)C(=O)O; dArg(Nω-CH2C6H4-3-CH2Gua) = N=C(N)NCc1cccc(CNC(=N)NCCC[C@@H](N)C(=O)O)c1; X21 = N=C(NCCC[C@@H](N[*:1])C(=O)[*:2])NC[C@H](O)[C@@H](O)[C@@H](O)CO; dArg(ω-(2S)-2,3-diOHpropyl) = N=C(NCCC[C@@H](N)C(=O)O)NC[C@H](O)CO; Bip(4'-NH) = O=C([C@H](Cc1ccc(-c2ccc(N[*:3])cc2)cc1)N[*:1])[*:2]; Indazole3carbonyl(1-CH2COOH) = O=C(O)Cn1nc(C(=O)*)c2ccccc21; Bip(4'-COOH) = N[C@@H](Cc1ccc(-c2ccc(C(=O)O)cc2)cc1)C(=O)O; Bip(4'-NHAc) = CC(=O)Nc1ccc(-c2ccc(C[C@H](N)C(=O)O)cc2)cc1; dArg(ω-Bn) = N=C(NCCC[C@@H](N)C(=O)O)NCc1ccccc1; Ala(morpholin-4-yl) = N[C@@H](CN1CCOCC1)C(=O)O; Phe(3-CONH2) = NC(=O)c1cccc(C[C@H](N)C(=O)O)c1; Bip = N[C@@H](Cc1ccc(-c2ccccc2)cc1)C(=O)O; 2Pal = N[C@@H](Cc1ccccn1)C(=O)O; 3Pal = N[C@@H](Cc1cccnc1)C(=O)O; 2Thi = N[C@@H](Cc1cccs1)C(=O)O; Tle = CC(C)(C)[C@H](N)C(=O)O; Sar = CNCC(=O)O

These compounds were tested against TNFα (Homo sapiens, UniProt P01375) (assay: TNF-Induced HEK-Blue Assay). Conditions: not given.
Format: cell-based

Sequence of TNFα (P01375 77-233 limits assumed): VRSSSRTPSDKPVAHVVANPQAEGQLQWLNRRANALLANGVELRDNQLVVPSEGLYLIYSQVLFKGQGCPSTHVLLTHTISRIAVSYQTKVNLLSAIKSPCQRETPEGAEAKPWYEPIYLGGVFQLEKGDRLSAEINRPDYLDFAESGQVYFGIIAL

Row | Structure (SMILES) | IC50
1 | CC[C@H](C)[C@@H]1NC(=O)[C@@H](CCCNC(=N)NC[C@H](O)[C@@H](O)[C@@H](O)CO)NC(=O)[C@H](CC(=O)O)NC(=O)[C@@H]2CCCN2C(=O)CN(C)C(=O)[C@H](Cc2ccc(-c3ccc(NC(=O)c4nn(CC(=O)O)c5ccccc45)cc3)cc2)NC(=O)[C@H](Cc2ccc(-c3ccccc3)cc2)NC(=O)[C@H](CN2CCOCC2)NC(=O)CSC[C@@H](C(=O)NCC(N)=O)NC(=O)[C@H](CC(C)C)NC(=O)[C@H](Cc2cnc[nH]2)NC(=O)[C@H](C(C)C)NC(=O)[C@@H]2CCCN2C1=O [Example 599] ({CH2CO}-[Ala(morpholin-4-yl)][Bip][Bip(4'-NH)](Indazole3carbonyl(1-CH2COOH))[Sar]PD[X21]IPVHLCG-NH2; thioether N-13) | < 50 nM
2 | CC(C)C[C@@H]1NC(=O)[C@H](Cc2cccc(C(N)=O)c2)NC(=O)[C@H](C(C)C)NC(=O)[C@@H]2CCCN2C(=O)[C@H](C(C)C)NC(=O)[C@@H](CCCNC(=N)NCc2cccc(CNC(=N)N)c2)NC(=O)[C@H](CC(=O)O)NC(=O)[C@H](Cc2ccc(O)cc2)NC(=O)CN(C)C(=O)[C@H](Cc2ccc(-c3ccc(NC(=O)c4nn(CC(=O)O)c5ccccc45)cc3)cc2)NC(=O)[C@H](Cc2ccc(-c3ccccc3)cc2)NC(=O)[C@H](CN2CCOCC2)NC(=O)CSC[C@@H](C(=O)NCC(N)=O)NC1=O [Example 620] ({CH2CO}-[Ala(morpholin-4-yl)][Bip][Bip(4'-NH)](Indazole3carbonyl(1-CH2COOH))[Sar]YD[dArg(Nω-CH2C6H4-3-CH2Gua)]VPV[Phe(3-CONH2)]LCG-NH2; thioether N-13) | < 50 nM
3 | CC(C)C[C@@H]1NC(=O)[C@H](CCCNC(=N)N)NC(=O)[C@H](C(C)C)NC(=O)[C@@H]2CCCN2C(=O)[C@H](C(C)C)NC(=O)[C@@H](CCCNC(=N)NC[C@H](O)CO)NC(=O)[C@H](CC(=O)O)NC(=O)[C@@H]2CCCN2C(=O)CN(C)C(=O)[C@H](Cc2ccc(-c3ccc(NC(=O)c4nn(CC(=O)O)c5ccccc45)cc3)cc2)NC(=O)[C@H](Cc2ccc(-c3ccccc3)cc2)NC(=O)[C@H](CN2CCOCC2)NC(=O)CSC[C@@H](C(=O)NCC(N)=O)NC1=O [Example 475] ({CH2CO}-[Ala(morpholin-4-yl)][Bip][Bip(4'-NH)](Indazole3carbonyl(1-CH2COOH))[Sar]PD[dArg(ω-(2S)-2,3-diOHpropyl)]VPVRLCG-NH2; thioether N-13) | < 50 nM
4 | CC(C)C[C@@H]1NC(=O)[C@H](Cc2cccc(C(N)=O)c2)NC(=O)[C@H](C(C)C)NC(=O)[C@@H]2CCCN2C(=O)[C@H](C(C)C)NC(=O)[C@@H](CCCNC(=N)NCc2ccccc2)NC(=O)[C@H](CC(=O)O)NC(=O)[C@H](Cc2ccc(O)cc2)NC(=O)CN(C)C(=O)[C@H](Cc2ccc(-c3ccc(NC(=O)c4nn(CC(=O)O)c5ccccc45)cc3)cc2)NC(=O)[C@H](Cc2ccc(-c3ccccc3)cc2)NC(=O)[C@H](CN2CCOCC2)NC(=O)CSC[C@@H](C(=O)NCC(N)=O)NC1=O [Example 600] ({CH2CO}-[Ala(morpholin-4-yl)][Bip][Bip(4'-NH)](Indazole3carbonyl(1-CH2COOH))[Sar]YD[dArg(ω-Bn)]VPV[Phe(3-CONH2)]LCG-NH2; thioether N-13) | < 50 nM

Same assay, conditions: HEK-Blue-CD40L cells, NF-kB-driven secreted alkaline phosphatase reporter; TNFα 0.5 ng/ml; 18 h; read-out: TNF induced HEK-Blue assay IC50 value

Row | IC50 | Structure (SMILES)
5 | 50 to 200 nM | CC[C@H](C)[C@@H]1NC(=O)[C@@H](CCCNC(=N)N)NC(=O)[C@H](CC(=O)O)NC(=O)[C@@H]2CCCN2C(=O)CN(C)C(=O)[C@H](Cc2ccc(-c3ccc(NC(=O)c4ccc(CC(=O)O)cc4)cc3)cc2)NC(=O)[C@H](Cc2ccc(-c3ccc(C(=O)O)cc3)cc2)NC(=O)[C@H](C(C)(C)C)NC(=O)CSC[C@@H](C(=O)NCC(N)=O)NC(=O)[C@H](CC(C)C)NC(=O)[C@H](Cc2cnc[nH]2)NC(=O)[C@H](C(C)C)NC(=O)[C@@H]2CCCN2C1=O [Example 576] ({CH2CO}-[Tle][Bip(4'-COOH)][Bip(4'-NHCO-C6H4-4-CH2COOH)][Sar]PD[dR]IPVHLCG-NH2; thioether N-13)
6 | < 50 nM | CC[C@H](C)[C@@H]1NC(=O)[C@@H]2CCCN2C(=O)[C@H]([C@@H](C)CC)NC(=O)[C@@H](CCCNC(=N)N)NC(=O)[C@H](CC(=O)O)NC(=O)[C@H](Cc2ccccn2)NC(=O)CN(C)C(=O)[C@H](Cc2ccc(-c3ccc(NC(=O)c4cccc(C(=O)O)c4)cc3)cc2)NC(=O)[C@H](Cc2ccc(-c3ccccc3)cc2)NC(=O)[C@H](C(C)(C)C)NC(=O)CSC[C@@H](C(=O)NCC(N)=O)NC(=O)[C@H](CC(C)C)NC(=O)[C@H](Cc2cccc(C(N)=O)c2)NC1=O [Example 368] ({CH2CO}-[Tle][Bip][Bip(4'-(3-HOOC-benzamido))][Sar][2Pal]D[dR]IPI[Phe(3-CONH2)]LCG-NH2; thioether N-13)
7 | 50 to 200 nM | CC(=O)Nc1ccc(-c2ccc(C[C@@H]3NC(=O)[C@H](Cc4ccc(-c5ccccc5)cc4)NC(=O)[C@H](CN4CCOCC4)NC(=O)CSC[C@@H](C(=O)NCC(N)=O)NC(=O)[C@H](CC(C)C)NC(=O)[C@H](Cc4ccccc4)NC(=O)[C@H](C(C)C)NC(=O)[C@@H]4CCCN4C(=O)[C@H](C(C)C)NC(=O)[C@@H](CCCNC(=N)N)NC(=O)[C@H](CC(=O)O)NC(=O)[C@H](Cc4ccccc4)NC(=O)CN(C)C3=O)cc2)cc1 [Example 174] ({CH2CO}-[Ala(morpholin-4-yl)][Bip][Bip(4'-NHAc)][Sar]FD[dR]VPVFLCG-NH2; thioether N-13)
8 | < 50 nM | CC(C)C[C@@H]1NC(=O)[C@H](Cc2cccs2)NC(=O)[C@H](C(C)C)NC(=O)[C@@H]2CCCN2C(=O)[C@H](C(C)C)NC(=O)[C@@H](CCCNC(=N)N)NC(=O)[C@H](CC(=O)O)NC(=O)[C@H](Cc2ccccn2)NC(=O)CN(C)C(=O)[C@H](Cc2ccc(-c3ccc(NC(=O)c4ccc(CC(=O)O)cc4)cc3)cc2)NC(=O)[C@H](Cc2ccc(-c3ccccc3)cc2)NC(=O)[C@H](CN2CCOCC2)NC(=O)CSC[C@@H](C(=O)NCC(N)=O)NC1=O [Example 607] ({CH2CO}-[Ala(morpholin-4-yl)][Bip][Bip(4'-NHCO-C6H4-4-CH2COOH)][Sar][2Pal]D[dR]VPV[2Thi]LCG-NH2; thioether N-13)
9 | < 50 nM | CC(=O)Nc1ccc(-c2ccc(C[C@@H]3NC(=O)[C@H](Cc4ccc(-c5ccccc5)cc4)NC(=O)[C@H](CN4CCOCC4)NC(=O)CSC[C@@H](C(=O)NCC(N)=O)NC(=O)[C@H](CC(C)C)NC(=O)[C@H](Cc4cccnc4)NC(=O)[C@H](C(C)C)NC(=O)[C@@H]4CCCN4C(=O)[C@H](C(C)C)NC(=O)[C@@H](CCCNC(=N)N)NC(=O)[C@H](CC(=O)O)NC(=O)[C@H](Cc4ccccn4)NC(=O)CN(C)C3=O)cc2)cc1 [Example 176] ({CH2CO}-[Ala(morpholin-4-yl)][Bip][Bip(4'-NHAc)][Sar][2Pal]D[dR]VPV[3Pal]LCG-NH2; thioether N-13)
10 | 50 to 200 nM | CC(C)C[C@@H]1NC(=O)[C@H](Cc2ccc(O)cc2)NC(=O)[C@H](C(C)C)NC(=O)[C@H](Cc2cccnc2)NC(=O)[C@H](C(C)C)NC(=O)[C@H](CCCNC(=N)N)NC(=O)[C@H](CC(=O)O)NC(=O)[C@H](Cc2ccc(O)cc2)NC(=O)CN(C)C(=O)[C@H](Cc2ccc(-c3ccccc3)cc2)NC(=O)[C@H](Cc2ccc(-c3ccccc3)cc2)NC(=O)[C@H](CN2CCOCC2)NC(=O)CSC[C@@H](C(=O)NCC(N)=O)NC1=O [Example 107] ({CH2CO}-[Ala(morpholin-4-yl)][Bip][Bip][Sar]YDRV[3Pal]VYLCG-NH2; thioether N-13)
